From patent US6730790B2, “Chlorinated heterocyclic compounds and methods of synthesis” (R.T. Alamo Ventures I. LLC, priority 2002, dated 2004)

Key:
Assay type in all cases: biochemical
[1] = molecular target: T1, PDE2 partially purified from human platelets (Homo sapiens, UniProt O00408); experiment: PDE2 enzyme inhibition assay ([3H]cAMP hydrolysis, scintillation counting)
T1 construct: PDE2 partially purified from human platelets was used; from tissue; host or cells: human platelets
From the text: (§1) In this example, a racemic mixture of monochloroflosequinan and the sulfone derivative of monochloroflosequinan were independently subjected to biochemical enzyme assays to determine their respective percent inhibition of a variety of phosphodiesterases (PDE1-PDE6). The methods used have been adapted from those described in the scientific literature, see Hidaka and Asano “Human blood platelet 3′:5′ cyclic nucleotide phosphodiesterase. Isolation of low-Km and high Km phosphodiesterase.” Biochem. Biophys. Acta 429:485 (1976); Nicholoson et at. “Differential modulation of tissue function and therapeutic potential of selective inhibitors of cyclic nucleotide phosphodiesterase isoenzymes” Trends Pharmacol. Sci. 12:19 (1991); Cortijo et al. “Investigation into the role of phosphodiesterase IV in bronchorelaxation, including studies with hyman bronchus.” Br. J. Pharmacol. 108:562 (1993); Baehr et al. “Isolation and characterization of cGMP phosphodiesterase from bovine rod outer segments.” J. Biol. Chem. 254:11669 (1979) and Gillespie and Beavo “Inhibition and stimulation of photoreceptor phosphodiesterase by dipyridamole and M&B 22,948” Molecular Pharm. 36:773 (1989). […]
PDE2: PDE2 partially purified from human platelets was used. […] Unhydrolyzed cAMP was bound to AGI-X2 resin, and the remaining [^3H]adenosine in the aqueous phase was quantitated by scintillation counting.

[2] = molecular target: T2, PDE3 partially purified from human platelets (Homo sapiens, UniProt Q14432); experiment: PDE3 enzyme inhibition assay ([3H]cAMP hydrolysis, scintillation counting); details: for IC50: varying concentrations 300-1 μM
T2 construct: PDE3 partially purified from human platelets was used; from tissue; host or cells: human platelets
T2 sequence (Q14432 whole entry): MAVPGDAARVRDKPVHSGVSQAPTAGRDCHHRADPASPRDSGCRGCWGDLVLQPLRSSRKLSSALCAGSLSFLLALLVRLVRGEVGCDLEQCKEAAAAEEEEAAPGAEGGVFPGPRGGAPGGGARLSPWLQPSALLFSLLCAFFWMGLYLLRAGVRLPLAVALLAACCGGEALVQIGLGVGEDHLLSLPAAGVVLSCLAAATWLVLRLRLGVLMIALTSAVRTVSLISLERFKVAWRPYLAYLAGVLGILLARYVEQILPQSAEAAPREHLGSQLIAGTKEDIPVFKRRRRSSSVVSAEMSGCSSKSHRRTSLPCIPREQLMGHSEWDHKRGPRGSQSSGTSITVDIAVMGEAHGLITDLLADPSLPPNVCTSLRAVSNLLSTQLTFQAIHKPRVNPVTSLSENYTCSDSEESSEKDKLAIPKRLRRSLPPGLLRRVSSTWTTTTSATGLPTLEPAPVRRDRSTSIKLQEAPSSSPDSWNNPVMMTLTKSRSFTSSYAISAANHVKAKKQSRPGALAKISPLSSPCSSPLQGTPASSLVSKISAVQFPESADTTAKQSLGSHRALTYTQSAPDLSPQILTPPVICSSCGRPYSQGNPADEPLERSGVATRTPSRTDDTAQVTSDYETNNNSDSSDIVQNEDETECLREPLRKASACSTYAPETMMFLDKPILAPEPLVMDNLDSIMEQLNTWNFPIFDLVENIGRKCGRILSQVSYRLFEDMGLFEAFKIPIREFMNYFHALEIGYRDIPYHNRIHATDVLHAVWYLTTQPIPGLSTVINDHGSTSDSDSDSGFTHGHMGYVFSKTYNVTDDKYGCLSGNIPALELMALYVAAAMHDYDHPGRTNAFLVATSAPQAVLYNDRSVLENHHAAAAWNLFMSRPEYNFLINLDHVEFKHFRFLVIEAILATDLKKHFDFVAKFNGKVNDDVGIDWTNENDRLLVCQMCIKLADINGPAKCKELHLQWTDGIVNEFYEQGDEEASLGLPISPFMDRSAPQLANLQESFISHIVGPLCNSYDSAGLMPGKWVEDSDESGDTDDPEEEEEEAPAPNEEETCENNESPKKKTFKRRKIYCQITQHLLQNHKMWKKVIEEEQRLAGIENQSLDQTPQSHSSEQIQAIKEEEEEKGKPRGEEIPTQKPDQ
From the text: In this example, a racemic mixture of monochloroflosequinan and the sulfone derivative of monochloroflosequinan were independently subjected to biochemical enzyme assays to determine their respective percent inhibition of a variety of phosphodiesterases (PDE1-PDE6). The methods used have been adapted from those described in the scientific literature, see Hidaka and Asano “Human blood platelet 3′:5′ cyclic nucleotide phosphodiesterase. Isolation of low-Km and high Km phosphodiesterase.” Biochem. Biophys. Acta 429:485 (1976); Nicholoson et at. “Differential modulation of tissue function and therapeutic potential of selective inhibitors of cyclic nucleotide phosphodiesterase isoenzymes” Trends Pharmacol. Sci. 12:19 (1991); Cortijo et al. “Investigation into the role of phosphodiesterase IV in bronchorelaxation, including studies with hyman bronchus.” Br. J. Pharmacol. 108:562 (1993); Baehr et al. “Isolation and characterization of cGMP phosphodiesterase from bovine rod outer segments.” J. Biol. Chem. 254:11669 (1979) and Gillespie and Beavo “Inhibition and stimulation of photoreceptor phosphodiesterase by dipyridamole and M&B 22,948” Molecular Pharm. 36:773 (1989). A brief summary of the conditions for each enzyme assay is provided below:
PDE3: PDE3 partially purified from human platelets was used. The compounds were independently incubated with 13 μg PDE3 enzyme and 1.01 μM [^3H]cAMP+cAMP in Tris buffer pH 7.5 for 20 minutes at either 25° C. or 30° C. The reaction was terminated by boiling for 2 minutes, and the resulting AMP was converted to adenosine by addition of 10 mg/ml snake venom nucleotidase and further incubation at 30° C. for 10 minutes. Unhydrolyzed cAMP was bound to AGI-X2 resin, and the remaining [^3H]adenosine in the aqueous phase was quantitated by scintillation counting.

[3] = molecular target: T3, PDE1 partially purified from bovine heart (Bos taurus, UniProt P14100); experiment: PDE1 enzyme inhibition assay ([3H]cAMP hydrolysis, scintillation counting)
T3 construct: PDE1 partially purified from bovine heart was used; from tissue; host or cells: bovine heart
T3 sequence (P14100 1-514 isoform P14100-2): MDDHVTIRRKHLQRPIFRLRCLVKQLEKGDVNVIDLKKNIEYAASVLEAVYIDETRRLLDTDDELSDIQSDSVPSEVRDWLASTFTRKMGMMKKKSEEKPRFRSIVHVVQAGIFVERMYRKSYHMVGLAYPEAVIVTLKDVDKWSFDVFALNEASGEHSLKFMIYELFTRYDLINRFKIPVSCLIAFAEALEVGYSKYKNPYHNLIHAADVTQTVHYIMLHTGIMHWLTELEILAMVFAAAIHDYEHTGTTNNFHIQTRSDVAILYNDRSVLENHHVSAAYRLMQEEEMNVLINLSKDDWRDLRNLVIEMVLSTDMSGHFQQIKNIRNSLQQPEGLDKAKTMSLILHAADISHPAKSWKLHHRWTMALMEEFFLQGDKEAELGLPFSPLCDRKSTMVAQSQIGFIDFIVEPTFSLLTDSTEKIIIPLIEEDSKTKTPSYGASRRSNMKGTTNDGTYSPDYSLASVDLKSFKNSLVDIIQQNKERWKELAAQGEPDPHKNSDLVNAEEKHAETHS
From the text: as §1
PDE1: PDE1 partially purified from bovine heart was used. […] Unhydrolyzed cAMP was bound to AGI-X2 resin, and the remaining [^3H]adenosine in the aqueous phase was quantitated by scintillation counting.

[4] = 100 μM compound, 30° C., 1% DMSO vehicle
[5] = varying concentrations 300-1 μM

T1 sequence (O00408 whole entry): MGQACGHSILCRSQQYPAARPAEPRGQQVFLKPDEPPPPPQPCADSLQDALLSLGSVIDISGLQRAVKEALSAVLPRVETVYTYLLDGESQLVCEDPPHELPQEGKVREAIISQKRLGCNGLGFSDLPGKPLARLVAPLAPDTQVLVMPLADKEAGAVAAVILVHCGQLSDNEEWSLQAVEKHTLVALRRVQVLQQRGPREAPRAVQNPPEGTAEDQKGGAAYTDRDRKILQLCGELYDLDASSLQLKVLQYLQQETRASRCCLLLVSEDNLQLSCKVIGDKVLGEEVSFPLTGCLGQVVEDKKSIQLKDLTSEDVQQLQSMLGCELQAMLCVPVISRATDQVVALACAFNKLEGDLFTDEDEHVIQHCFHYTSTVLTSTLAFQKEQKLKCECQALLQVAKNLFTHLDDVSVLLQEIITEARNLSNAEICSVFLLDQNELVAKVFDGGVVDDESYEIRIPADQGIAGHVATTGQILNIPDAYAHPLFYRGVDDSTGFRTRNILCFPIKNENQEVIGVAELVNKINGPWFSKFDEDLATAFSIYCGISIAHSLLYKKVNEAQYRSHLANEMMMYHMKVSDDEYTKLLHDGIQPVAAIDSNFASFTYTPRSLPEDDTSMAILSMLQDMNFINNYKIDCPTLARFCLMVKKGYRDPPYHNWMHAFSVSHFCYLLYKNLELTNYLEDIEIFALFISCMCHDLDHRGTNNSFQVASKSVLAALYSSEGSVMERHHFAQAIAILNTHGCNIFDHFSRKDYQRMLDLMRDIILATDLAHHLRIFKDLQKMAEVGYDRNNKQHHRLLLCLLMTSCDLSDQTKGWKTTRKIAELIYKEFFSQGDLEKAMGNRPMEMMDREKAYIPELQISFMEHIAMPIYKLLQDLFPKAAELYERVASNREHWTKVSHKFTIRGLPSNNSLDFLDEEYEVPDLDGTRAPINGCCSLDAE

inhibition of PDE2 [1, 4] | IC50 [1, 5] [µM] | inhibition of PDE3 [2, 4] | IC50 [2] [µM] | inhibition of PDE1 [3, 4] | IC50 [3, 5] [µM] | inhibition at 100 µM ([2]; 100 μM compound, 25° C., 1% DMSO vehicle) [%] | Compound
Significant inhibition | > 300 | Significant inhibition | 28.2 | Significant inhibition | 65.6 | – | Cn1cc([S+]([O-])CCl)c(=O)c2ccc(F)cc21 (racemic) [monochloroflosequinan, 3-chloromethylsulfinyl-7-fluoro-1-methyl-4-quinolone]
– | – | – | 95.9 | – | – | > 50 | Cn1cc(S(=O)(=O)CCl)c(=O)c2ccc(F)cc21 [monochloroflosequinan sulfone, 3-chloromethylsulfonyl-7-fluoro-1-methyl-4-quinolone]
